Results on 2 molecules are retold here after patent US11969511B2, “Methods and compositions for antimicrobial treatment” (UNM Rainforest Innovations, priority 2015, dated 2024).

≈ marks a conversion by molar mass, not a printed value. Where a name gives a salt, the structure may show the parent alone.

One assay has as its system P. aeruginosa biofilms. Put plainly: Minimum inhibitory concentration, biofilm phase (XTT). The assay is classed as cell-based, Pseudomonas aeruginosa PAO1. The conditions noted are these: 24 h. In general terms: Tetrazolium assays rely on reduction of a dye to a coloured formazan, in cell work by metabolically active cells.
In the next assay the test system is P. aeruginosa. The assay is described as follows: Minimum inhibitory concentration of tobramycin (dilution series, plating). The assay is classed as cell-based. The note with it: Pseudomonas aeruginosa. The procedure: Determination of minimum inhibitory concentration of tobramycin. […] Afterwards, tobramycin was serially diluted into 1 mL of DI H2O and added to the 1 mL aliquots of overnight bacterial culture to the final concentrations of tobramycin ranging from 25 to 250 μg/mL, with 25 μg/mL increments. For the control, 1 mL of sterile DI H2O was added to the aliquot of the culture. The cultures were then grown overnight on a rotary shaker at 37° C. and 150 rpm. The next day, 50 μL aliquots of the overnight cultures were diluted 1:2 with TSB, plated on the TS nutrient agar plates, and grown for 24 hours at 37° C. The next-day plates were checked for the presence of bacterial colonies. […] These findings introduce a starting point for inhibition of established biofilms. This is the MIC for tobramycin alone, without attachment to NPs.

The subject of the next assay is P. aeruginosa biofilm. The assay is described as follows: Biofilm-inhibition through mucin and alginate barriers (in vitro CF biofilm model, disks). The class given is cell-based, Pseudomonas aeruginosa. More on the design: key to Sensitivity, Mucin barrier / Sensitivity, Alginate barrier / Sensitivity, Both barriers: S for sensitive; I for intermediate; R for resistant. The conditions noted are these: tobramycin 2 mg/mL; for Sensitivity, Alginate barrier / Sensitivity, Both barriers / Sensitivity, Mucin barrier: NPs 50 mg/mL; for Biofilm inhibition (number), Alginate barrier / Biofilm inhibition (number), Both barriers / Biofilm inhibition (number), Mucin barrier: NPs alginate capped 50 mg/mL. The source says:
Disk diffusion method. The disk diffusion method is one of the most popular approaches to bacterial sensitivity testing due to its low cost and efficiency. The disk, impregnated with a candidate antibiotic drug or compound of interest, is placed on the inoculated agar; which contains a uniform layer of bacteria taken from liquid culture. The disks are commercially available, containing the proper concentrations of antibiotic drugs based on […]. As a low-cost alternative, disks may be prepared using filter paper soaked in the appropriate aqueous concentrations of the antibiotic drugs of interest. The underside of the plate is numbered for each sample to be tested. The cultures are distributed evenly onto a sterile agar plate using a sterile cotton swab to form a uniform layer on the agar. The disks, impregnated with NPs, drug, or NP-drug conjugates are then placed on top of the agar. The cultures are allowed to grow in the previous conditions overnight (16-18 hours). For these experiments, an vitro biofilm model was that would mimic the infection in CF in which there is an alginate and mucin barrier to drug diffusion.

Where [1] appears, read: after magnetic treatment at 24 hours.

Protocol for P. aeruginosa biofilms: Biofilm phase. P. aeruginosa biofilms were developed in sterile 96 well plates (BD biosciences, USA) as described above. Biofilms were washed twice with PBS and ciprofloxacin was administered in a concentration gradient (two fold). The plates were incubated for 24 h at 37° C. and 80 rpm. At the end of incubation period, XTT reduction assay was performed to quantify the viability of biofilms. […] The assay was performed quadruplicates at three times.

Turning to `O=C(O)c1cn(C2CC2)c2cc(N3CCNCC3)c(F)cc2c1=O` [Cipro, Ciprofloxacin hydrochloride], the “MIC80 of P. aeruginosa biofilms” value against P. aeruginosa biofilms is 1 µg/mL.
Molecule `NC[C@H]1O[C@H](O[C@H]2[C@H](O)[C@@H](O[C@H]3O[C@H](CO)[C@@H](O)[C@H](N)[C@H]3O)[C@H](N)C[C@@H]2N)[C@H](N)C[C@@H]1O` [Tobramycin, tobramycin] came in with an MIC against P. aeruginosa (biofilm cells) of 50 µg/mL (≈ 107 µM). Further, in the assay on P. aeruginosa (planktonic cells), the MIC turned out to be 15 µg/mL (≈ 32.1 µM). Further, in the assay with P. aeruginosa biofilm (setting [1]), the “Sensitivity, Alginate barrier” value is listed as “S”; the “Sensitivity, Both barriers” value was “S”; the “Sensitivity, Mucin barrier” value was “S”; the “Biofilm inhibition (number), Alginate barrier” value stood at 30. In the assay on P. aeruginosa biofilm (setting [1]), the “Biofilm inhibition (number), Both barriers” value amounted to 20 and the “Biofilm inhibition (number), Mucin barrier” value worked out at 32. Besides, in the assay with P. aeruginosa biofilm (no magnetic treatment), the “Sensitivity, Alginate barrier” value was “S”; the “Sensitivity, Both barriers” value is “S”; the “Sensitivity, Mucin barrier” value is recorded as “S”; the “Biofilm inhibition (number), Alginate barrier” value came to 40. In addition, in the assay on P. aeruginosa biofilm (no magnetic treatment), the “Biofilm inhibition (number), Both barriers” value is 40 and the “Biofilm inhibition (number), Mucin barrier” value came out at 30.
